The subject of one assay is FFA3 R185A. Set-up: method as in PMID 24870406. The settings on record: orthosteric binding site; cited from earlier work.
Another assay deals with T1, mFFA3 (Mus musculus, UniProt Q3UFD7).
T1 sequence (Q3UFD7 1-319): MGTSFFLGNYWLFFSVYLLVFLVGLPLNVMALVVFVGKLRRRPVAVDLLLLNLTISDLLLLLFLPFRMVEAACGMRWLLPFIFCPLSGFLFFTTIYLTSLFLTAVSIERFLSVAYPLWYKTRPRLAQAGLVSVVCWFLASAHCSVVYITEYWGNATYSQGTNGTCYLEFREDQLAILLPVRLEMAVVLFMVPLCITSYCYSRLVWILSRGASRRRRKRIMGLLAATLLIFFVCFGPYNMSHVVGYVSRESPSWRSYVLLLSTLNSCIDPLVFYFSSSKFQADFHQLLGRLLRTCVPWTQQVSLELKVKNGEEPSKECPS
The assay is described as follows: biochemical. The method, then:
Reactions were initiated with the addition of [^35S]GTPγS at 50 nCi per tube; reactions were terminated after 1 h of incubation at 25 °C by rapid filtration through GF/C glass filters using a 24-well Brandel cell harvester (Alpha Biotech, Glasgow, UK). Unbound radioligand was removed from filters by washing three times with ice-cold wash buffer (50 mM Tris–HCl, pH 7.4, and 10 mM MgCl2), and [^35S]GTPγS binding was determined by liquid scintillation spectrometry.

Take `CC1=C(C(=O)Nc2ccccc2C)C(c2ccco2)C2=C(CCCC2=O)N1` (centres unmarked) [Compound 1, 4-(Furan-2-yl)-2-methyl-5-oxo-N-(o-tolyl)-1,4,5,6,7,8-hexahydroquinoline-3-carboxamide, reference compound]: the “effect of mutation R185A” value in the assay with FFA3 R185A is “not affected”. A word on the EC50: it is the concentration at which the effect is half-maximal. Low readings indicate a more potent agent, high ones a less potent agent. In turn, `CCCC1C(C(=O)Nc2cc(Cl)ccc2Cl)=C(C)NC2=C1C(=O)CCC2` (centres unmarked) [Compound 57, N-(2,5-Dichlorophenyl)-2-methyl-5-oxo-4-propyl-1,4,5,6,7,8-hexahydroquinoline-3-carboxamide] had an EC50 on mFFA3 of 2000 nM.
